{"source": "paper PMC9898036", "about": "“VIP152 is a selective CDK9 inhibitor with pre-clinical in vitro and in vivo efficacy in chronic lymphocytic leukemia” (Leukemia, 2022)", "key": {"FLT3(D835V)": {"target": "FLT3(D835V) (Homo sapiens, UniProt P36888, D835V)", "assay": "KINOMEscan: FLT3(D835V)", "format": "binding", "conditions": "1000 nM, read-out: Percent Control"}, "ABL1 [1]": {"target": "T1, ABL1 (Homo sapiens, UniProt P00519, Q252H)", "T1 sequence (P00519 229-512 Q252H)": "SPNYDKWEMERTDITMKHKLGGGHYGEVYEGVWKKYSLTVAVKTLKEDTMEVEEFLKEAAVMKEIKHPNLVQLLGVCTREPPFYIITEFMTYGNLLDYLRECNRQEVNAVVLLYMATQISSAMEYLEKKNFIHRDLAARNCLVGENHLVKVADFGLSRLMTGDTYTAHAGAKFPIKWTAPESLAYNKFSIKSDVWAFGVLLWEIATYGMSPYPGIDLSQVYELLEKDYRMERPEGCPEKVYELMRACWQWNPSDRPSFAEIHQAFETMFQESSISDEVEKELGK", "assay": "KINOMEscan: ABL1", "format": "binding", "conditions": "read-out: Percent Control; for remaining binding at 0.1 µM: 100 nM; for remaining binding at 1 µM: 1000 nM", "description": "(§1) The structure and synthesis of VIP152 were recently described by Lücking et al.. (Fig. 1A); however, the selectivity of the molecule in cellular systems has yet to be explored. […] We also performed this experiment at 1000 nM, where CDK9 was inhibited at 99%. […] We found a strong concordance between our data and those of Lücking when comparing the most inhibited kinases. Potential off-target effects of VIP152 were next tested in vitro at a concentration of 10 µM for off-target activity against a broad range of receptors, transporters, ion channels, and enzymes (n = 138) using the Eurofins Diversity Panel.\n(§2) Kinomescan Kinase Profiling Assay\n(§3) Kinomescan Assay was performed at DiscoverRX and described in Fabian, et al. 2005, Nat.\n(§4) Biotechnol. In brief, kinases were produced and subsequently tagged with DNA for qPCR detection.\n(§5) Streptavidin-coated magnetic beads were bound to biotinylated kinase ligands to serve as a solid support.\n(§6) VIP152 was dissolved in DMSO and tested across a 10 serial threefold dilution set and compared to a test compound and a DMSO control. Kinases which were inhibited by VIP152 would not be bound to the solid-support resulting in decreased substrate for the qPCR reaction. Kinome map was produced via TreeSpot Analysis from DiscoverRX. […]"}, "ABL1 [2]": {"target": "T2, ABL1 (Homo sapiens, UniProt P00519, F317L)", "T2 sequence (P00519 229-512 F317L)": "T1 sequence (P00519 229-512 Q252H) with H24Q, F89L", "assay": "KINOMEscan: ABL1", "format": "binding", "conditions": "read-out: Percent Control; for remaining binding at 0.1 µM: 100 nM; for remaining binding at 1 µM: 1000 nM", "description": "as §1, §2, §3, §4, §5, §6"}, "ABL1 [3]": {"target": "ABL1 (Homo sapiens, UniProt P00519)", "assay": "KINOMEscan: ABL1", "format": "binding", "conditions": "read-out: Percent Control; for remaining binding at 0.1 µM: 100 nM; for remaining binding at 1 µM: 1000 nM", "description": "as §1, §2, §3, §4, §5, §6"}, "ABL1 [4]": {"target": "ABL1 (Homo sapiens, UniProt P00519, E255K)", "assay": "KINOMEscan: ABL1", "format": "binding", "conditions": "ABL1(E255K)-phosphorylated, read-out: Percent Control", "description": "as §1, §2, §3, §4, §5, §6"}, "ABL1 [5]": {"target": "ABL1 (Homo sapiens, UniProt P00519, Y253F)", "assay": "KINOMEscan: ABL1", "format": "binding", "conditions": "ABL1(Y253F)-phosphorylated, read-out: Percent Control", "description": "as §1, §2, §3, §4, §5, §6"}, "ABL1 [6]": {"target": "T3, ABL1 (Homo sapiens, UniProt P00519, H396P)", "T3 sequence (P00519 229-512 H396P)": "T1 sequence (P00519 229-512 Q252H) with H24Q, H168P", "assay": "KINOMEscan: ABL1", "format": "binding", "conditions": "read-out: Percent Control; for remaining binding at 0.1 µM: 100 nM; for remaining binding at 1 µM: 1000 nM", "description": "as §1, §2, §3, §4, §5, §6"}, "ABL1 [7]": {"tested_on": "ABL1", "assay": "KINOMEscan: ABL1", "format": "binding, human", "conditions": "1000 nM", "description": "as §1, §2, §3, §4, §5, §6"}, "ABL1 [8]": {"target": "T4, ABL1 (Homo sapiens, UniProt P00519, T315I)", "T4 sequence (P00519 229-512 T315I)": "T1 sequence (P00519 229-512 Q252H) with H24Q, T87I", "assay": "KINOMEscan: ABL1", "format": "binding", "conditions": "read-out: Percent Control; for remaining binding at 0.1 µM: 100 nM; for remaining binding at 1 µM: 1000 nM", "description": "as §1, §2, §3, §4, §5, §6"}, "[9]": {"target": "RPS6KA4(Kin.Dom.2-C-terminal) (Homo sapiens, UniProt O75676)", "sequence (O75676 372-772 limits assumed)": "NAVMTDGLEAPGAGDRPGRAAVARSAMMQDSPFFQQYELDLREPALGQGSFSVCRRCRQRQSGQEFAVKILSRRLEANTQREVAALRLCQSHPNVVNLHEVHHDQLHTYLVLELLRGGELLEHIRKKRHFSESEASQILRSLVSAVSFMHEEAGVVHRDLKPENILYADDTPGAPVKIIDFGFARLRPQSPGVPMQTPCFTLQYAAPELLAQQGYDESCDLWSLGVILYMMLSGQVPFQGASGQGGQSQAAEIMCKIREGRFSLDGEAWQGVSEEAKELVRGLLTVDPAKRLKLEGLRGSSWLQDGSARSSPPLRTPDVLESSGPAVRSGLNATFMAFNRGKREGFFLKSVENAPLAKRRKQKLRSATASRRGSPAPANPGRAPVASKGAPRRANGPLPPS", "assay": "KINOMEscan: RPS6KA4(Kin.Dom.2-C-terminal)", "format": "binding", "conditions": "100 nM, read-out: Percent Control"}, "Adenosine A1": {"target": "Adenosine A1 (Homo sapiens, UniProt P30542)", "sequence (P30542 whole entry)": "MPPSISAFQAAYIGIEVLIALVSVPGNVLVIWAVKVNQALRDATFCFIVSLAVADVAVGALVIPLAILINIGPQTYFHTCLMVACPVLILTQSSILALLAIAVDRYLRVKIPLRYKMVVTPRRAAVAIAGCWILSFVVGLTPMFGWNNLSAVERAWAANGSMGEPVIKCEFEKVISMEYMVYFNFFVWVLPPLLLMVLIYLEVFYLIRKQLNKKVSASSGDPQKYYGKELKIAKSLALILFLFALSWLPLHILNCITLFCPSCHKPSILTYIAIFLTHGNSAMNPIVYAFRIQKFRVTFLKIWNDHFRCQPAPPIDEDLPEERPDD", "assay": "Eurofins Diversity Panel", "format": "binding", "conditions": "hum, Conc. 10 μM"}, "FLT3(D835Y)": {"target": "FLT3(D835Y) (Homo sapiens, UniProt P36888, D835Y)", "assay": "KINOMEscan: FLT3(D835Y)", "format": "binding", "conditions": "1000 nM, read-out: Percent Control"}, "YSK1": {"target": "YSK1 (Homo sapiens, UniProt O00506)", "sequence (O00506 whole entry)": "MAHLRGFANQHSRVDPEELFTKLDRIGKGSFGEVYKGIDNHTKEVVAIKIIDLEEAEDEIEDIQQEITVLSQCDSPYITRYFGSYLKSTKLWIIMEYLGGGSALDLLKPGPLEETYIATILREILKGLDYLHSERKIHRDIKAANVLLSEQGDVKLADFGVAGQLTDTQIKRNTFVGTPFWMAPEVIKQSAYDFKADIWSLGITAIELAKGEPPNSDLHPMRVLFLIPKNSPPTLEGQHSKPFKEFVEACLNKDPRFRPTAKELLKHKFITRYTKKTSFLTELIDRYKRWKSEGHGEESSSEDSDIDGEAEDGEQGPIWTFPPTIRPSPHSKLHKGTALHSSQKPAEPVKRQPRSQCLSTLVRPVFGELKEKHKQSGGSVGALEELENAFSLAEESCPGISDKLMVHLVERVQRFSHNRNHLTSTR", "assay": "KINOMEscan: YSK1", "format": "binding", "conditions": "100 nM, read-out: Percent Control"}, "CDKL2": {"target": "CDKL2 (Homo sapiens, UniProt Q92772)", "sequence (Q92772 whole entry)": "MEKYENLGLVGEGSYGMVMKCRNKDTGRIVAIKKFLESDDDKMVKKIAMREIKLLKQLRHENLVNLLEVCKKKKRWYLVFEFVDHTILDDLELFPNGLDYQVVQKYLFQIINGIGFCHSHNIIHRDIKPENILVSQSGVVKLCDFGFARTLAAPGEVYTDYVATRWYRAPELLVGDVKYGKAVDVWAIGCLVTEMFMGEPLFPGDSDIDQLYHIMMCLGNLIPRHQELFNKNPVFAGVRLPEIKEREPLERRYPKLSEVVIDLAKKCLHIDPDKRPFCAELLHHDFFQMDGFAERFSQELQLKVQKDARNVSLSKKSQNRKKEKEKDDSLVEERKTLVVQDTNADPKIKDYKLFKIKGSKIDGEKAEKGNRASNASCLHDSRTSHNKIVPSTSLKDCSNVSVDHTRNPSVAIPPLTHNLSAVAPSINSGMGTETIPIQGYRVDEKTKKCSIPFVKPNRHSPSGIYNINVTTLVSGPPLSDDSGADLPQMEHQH", "assay": "KINOMEscan: CDKL2", "format": "binding", "conditions": "1000 nM, read-out: Percent Control"}}, "note": "Numbering of substitutions follows the chain as printed. Like-named read-outs stand apart in the source and are kept apart here.", "data": [{"smiles": "COc1cc(F)ccc1-c1cc(Nc2cc(CS(C)(=N)=O)ccn2)ncc1F", "note": "(stereo not shown) [VIP152]", "values": [{"measurement": "remaining binding at 1 µM", "setting": "FLT3(D835V)", "result": 15, "unit": "%"}, {"measurement": "remaining binding at 0.1 µM", "setting": "ABL1 [1]; ABL1(Q252H)-nonphosphorylated", "result": 72, "unit": "%"}, {"measurement": "remaining binding at 1 µM", "setting": "ABL1 [1]; ABL1(Q252H)-nonphosphorylated", "result": 25, "unit": "%"}, {"measurement": "remaining binding at 0.1 µM", "setting": "ABL1 [1]; ABL1(Q252H)-phosphorylated", "result": 100, "unit": "%"}, {"measurement": "remaining binding at 1 µM", "setting": "ABL1 [1]; ABL1(Q252H)-phosphorylated", "result": 46, "unit": "%"}, {"measurement": "remaining binding at 0.1 µM", "setting": "ABL1 [2]; ABL1(F317L)-nonphosphorylated", "result": 100, "unit": "%"}, {"measurement": "remaining binding at 1 µM", "setting": "ABL1 [2]; ABL1(F317L)-nonphosphorylated", "result": 52, "unit": "%"}, {"measurement": "remaining binding at 0.1 µM", "setting": "ABL1 [2]; ABL1(F317L)-phosphorylated", "result": 95, "unit": "%"}, {"measurement": "remaining binding at 1 µM", "setting": "ABL1 [2]; ABL1(F317L)-phosphorylated", "result": 56, "unit": "%"}, {"measurement": "remaining binding at 0.1 µM", "setting": "ABL1 [3]; ABL1-nonphosphorylated", "result": 64, "unit": "%"}, {"measurement": "remaining binding at 1 µM", "setting": "ABL1 [3]; ABL1-nonphosphorylated", "result": 21, "unit": "%"}, {"measurement": "remaining binding at 0.1 µM", "setting": "ABL1 [3]; ABL1-phosphorylated", "result": 73, "unit": "%"}, {"measurement": "remaining binding at 1 µM", "setting": "ABL1 [3]; ABL1-phosphorylated", "result": 54, "unit": "%"}, {"measurement": "remaining binding at 0.1 µM", "setting": "ABL1 [4]; 100 nM", "result": 83, "unit": "%"}, {"measurement": "remaining binding at 1 µM", "setting": "ABL1 [4]; 1000 nM", "result": 48, "unit": "%"}, {"measurement": "remaining binding at 0.1 µM", "setting": "ABL1 [5]; 100 nM", "result": 100, "unit": "%"}, {"measurement": "remaining binding at 1 µM", "setting": "ABL1 [5]; 1000 nM", "result": 45, "unit": "%"}, {"measurement": "remaining binding at 0.1 µM", "setting": "ABL1 [6]; ABL1(H396P)-nonphosphorylated", "result": 70, "unit": "%"}, {"measurement": "remaining binding at 1 µM", "setting": "ABL1 [6]; ABL1(H396P)-nonphosphorylated", "result": 7.6, "unit": "%"}, {"measurement": "remaining binding at 0.1 µM", "setting": "ABL1 [6]; ABL1(H396P)-phosphorylated", "result": 100, "unit": "%"}, {"measurement": "remaining binding at 1 µM", "setting": "ABL1 [6]; ABL1(H396P)-phosphorylated", "result": 52, "unit": "%"}, {"measurement": "inhibition of ABL1", "setting": "ABL1 [7]", "result": 96.8, "unit": "%"}, {"measurement": "remaining binding at 0.1 µM", "setting": "ABL1 [8]; ABL1(T315I)-nonphosphorylated", "result": 96, "unit": "%"}, {"measurement": "remaining binding at 1 µM", "setting": "ABL1 [8]; ABL1(T315I)-nonphosphorylated", "result": 3.2, "unit": "%"}, {"measurement": "remaining binding at 0.1 µM", "setting": "ABL1 [8]; ABL1(T315I)-phosphorylated", "result": 95, "unit": "%"}, {"measurement": "remaining binding at 1 µM", "setting": "ABL1 [8]; ABL1(T315I)-phosphorylated", "result": 53, "unit": "%"}, {"measurement": "remaining binding at 0.1 µM", "setting": "[9]", "result": 100, "unit": "%"}, {"measurement": "inhibition at 10 µM", "setting": "Adenosine A1", "result": 4, "unit": "%"}, {"measurement": "remaining binding at 1 µM", "setting": "FLT3(D835Y)", "result": 67, "unit": "%"}, {"measurement": "remaining binding at 0.1 µM", "setting": "YSK1", "result": 100, "unit": "%"}, {"measurement": "remaining binding at 1 µM", "setting": "CDKL2", "result": 18, "unit": "%"}]}]}
